The values below come from patent US4764618A, “Arginine derivatives and pharmaceutically acceptable acid addition salts thereof” (Mitsubishi Chemical Industries Limited, priority 1984, dated 1988).

This test has as its target T1, trypsin (Bos taurus, UniProt P00760).
T1 sequence (P00760 24-246): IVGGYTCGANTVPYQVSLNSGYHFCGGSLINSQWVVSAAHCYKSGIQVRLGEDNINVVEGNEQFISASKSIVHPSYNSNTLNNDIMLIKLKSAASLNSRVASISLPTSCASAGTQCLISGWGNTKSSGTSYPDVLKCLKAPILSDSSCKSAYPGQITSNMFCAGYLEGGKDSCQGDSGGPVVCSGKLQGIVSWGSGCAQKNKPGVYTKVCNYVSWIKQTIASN
Nature of the test: Determination of Trypsin-Inhibiting Activity (chromogenic substrate S-2222). Format: biochemical. The conditions noted are these: inhibitor concentration giving 50% of ΔA/min (405 nm) without inhibitor; 33.3 μM S-2222, 0.1 M Tris-HCl pH 8.3, 37° C.; read-out: I50. As for the experimental part:
Trypsin-inhibiting activity of the arginine derivatives of this invention was determined by the method described below.
Determination of Trypsin-Inhibiting Activity
Trypsin activity is determined by measuring the rate of formation of para-nitroaniline from synthesized chromogenic substrate Jz-Ile-Glu(γ-OH and γ-OCH3)-Gly-Arg-pNA (S-2222)(benzoylisoleucylglutamyl(γ-OH:γ-OCH3 =1:1)glycylarginine p-nitroanilide) supplied by Kabi Diagnostica Inc. Three (3) ml of a reaction mixture containing 33.3 μM of S-2222 and 0.1 M Tris-HCl buffer solution (pH 8.3) is placed in a cell for spectrophotometry and the cell is placed in the thermostatic cell holder at 37° C. of a Hitachi 124 spectrophotometer. After the cell is kept at 37° C. for 3 minutes, 10 μl of a solution of trypsin dissolved in 0.001N HCl containing 0.05M CaCl2 is added, and increase in absorbance at 405 nm is continuously measured using a recorder to calculate ΔA/min at an initial portion. Various inhibitors in various concentrations are added and ΔA/min values are respectively measured. Data are plotted with the inhibitor concentration as abscissa and ΔA/min as ordinate. From the resulting graph the inhibitor concentrations which give ΔA/min corresponding to 50% of the ΔA/min value when no inhibitor is added are sought as I50.
As for `CC1CNc2c(cccc2S(=O)(=O)N[C@@H](CCCNC(=N)N)C(=O)N2CCC(c3ccccc3)CC2)C1` (stereo partly drawn) [Run No. 1], the IC50 amounted to 2100 nM.

Turning to `COc1ccc2ccc(S(=O)(=O)N[C@@H](CCCNC(=N)N)C(=O)N3CCC(c4ccccc4)CC3)cc2c1` [Run No. 2, 1-[N^2-(7-methoxy-2-naphthalenesulfonyl)-L-arginyl]-4-phenylpiperidine], the IC50 was 230 nM.

Regarding `COc1cc2ccc(S(=O)(=O)N[C@@H](CCCNC(=N)N)C(=O)N3CCC(c4ccccc4)CC3)cc2cc1OC` [Run No. 3], the IC50 amounted to 2400 nM.

For `COc1cc2ccc(S(=O)(=O)N[C@@H](CCCNC(=N)N)C(=O)N3CCC(Cc4ccccc4)CC3)cc2cc1OC` [Run No. 4], the IC50 stood at 3500 nM.

Take `Cc1ccc(S(=O)(=O)N[C@@H](CCCNC(=N)N)C(=O)N2CCC(c3ccccc3)CC2)cc1` [Run No. 5]: the IC50 came to 22000 nM.

Turning to `CCOC(=O)C1CC(c2ccccc2)CCN1C(=O)[C@H](CCCNC(=N)N)NS(=O)(=O)c1ccc2ccc(OC)cc2c1` (stereo partly drawn) [Run No. 23], the IC50 came to 650 nM.

For `CCOC(=O)c1cc2cccc(S(=O)(=O)N[C@@H](CCCNC(=N)N)C(=O)N3CCC(c4ccccc4)CC3)c2cc1OC` [Run No. 49], the IC50 was determined as 2100 nM.

As to `CCOC(=O)C1(c2ccccc2)CCN(C(=O)[C@H](CCCNC(=N)N)NS(=O)(=O)c2ccc3ccc(OC)cc3c2)CC1` [Run No. 54], the IC50 was 12000 nM.

For the compound `CC1CNc2c(cccc2S(=O)(=O)N[C@@H](CCCNC(=N)N)C(=O)N2CCN(c3ccccc3)CC2)C1` (stereo partly drawn) [compound 6], the IC50 was determined as 10000 nM.

As to `COc1ccc2ccc(S(=O)(=O)N[C@@H](CCCNC(=N)N)C(=O)N3CCN(c4ccccc4)CC3)cc2c1` [compound 7], the IC50 was determined as 1500 nM.

On to `Cc1ccc(S(=O)(=O)N[C@@H](CCCNC(=N)N)C(=O)N2CCN(c3ccccc3)CC2)cc1` [compound 8], for which the IC50 worked out at 74000 nM.

With `COc1cc2ccc(S(=O)(=O)N[C@@H](CCCNC(=N)N)C(=O)N3CCN(c4ccccc4)CC3)cc2cc1OC` [compound 9], the IC50 stood at 7800 nM.

`N=C(N)NCCC[C@H](NS(=O)(=O)c1ccc2oc3ccccc3c2c1)C(=O)N1CCC(c2ccccc2)CC1` [compound 10]: the IC50 was found to be 2200 nM.

In the case of `N=C(N)NCCC[C@H](NS(=O)(=O)c1ccc2c(c1)Cc1ccccc1-2)C(=O)N1CCC(c2ccccc2)CC1` [compound 11], the IC50 is 3200 nM.

For `Cc1ccc2ccc(S(=O)(=O)N[C@@H](CCCNC(=N)N)C(=O)N3CCC(c4ccccc4)CC3)cc2c1` [compound 12], the IC50 stood at 1000 nM.

Take `COc1ccc2cc(S(=O)(=O)N[C@@H](CCCNC(=N)N)C(=O)N3CCC(c4ccccc4)CC3)cc(OC)c2c1` [compound 13]: the IC50 came out at 2250 nM.

As to `N=C(N)NCCC[C@H](NC(=O)c1cccc2ccccc12)C(=O)N1CCC(c2ccccc2)CC1` [compound 14], the IC50 was 395000 nM.

For the compound `N=C(N)NCCC[C@H](NS(=O)(=O)c1ccc2cc3c(cc2c1)OCCO3)C(=O)N1CCC(c2ccccc2)CC1` [compound 15], the IC50 is 6000 nM.

With `COc1ccc2ccc(S(=O)(=O)N[C@@H](CCCNC(=N)N)C(=O)N3CCN(c4ccc(Cl)cc4)CC3)cc2c1` [compound 16], the IC50 came out at 690 nM.

On to `COc1ccc2ccc(S(=O)(=O)N[C@@H](CCCNC(=N)N)C(=O)N3CCN(c4cccc(Cl)c4)CC3)cc2c1` [compound 17], for which the IC50 turned out to be 380 nM.

Turning to `COc1ccc2ccc(S(=O)(=O)N[C@@H](CCCNC(=N)N)C(=O)N3CCN(c4ccccc4Cl)CC3)cc2c1` [compound 18], the IC50 stood at 330 nM.

As for `CCOc1c(OC)ccc(S(=O)(=O)N[C@@H](CCCNC(=N)N)C(=O)N2CCC(c3ccccc3)CC2)c1OC` [compound 19], the IC50 worked out at 2400 nM.

Regarding `COc1ccc2ccc(S(=O)(=O)N[C@@H](CCCNC(=N)N)C(=O)N3CCN(c4ccccc4OC)CC3)cc2c1` [compound 20], the IC50 is 800 nM.

Take `CCOc1ccc2ccc(S(=O)(=O)N[C@@H](CCCNC(=N)N)C(=O)N3CCC(c4ccccc4)CC3)cc2c1` [compound 21]: the IC50 stood at 900 nM.

As for `COc1ccc2ccc(S(=O)(=O)N[C@@H](CCCNC(=N)N)C(=O)N3CCN(c4ccccc4C)CC3)cc2c1` [compound 22], the IC50 amounted to 400 nM.

With `COc1ccc2ccc(S(=O)(=O)N[C@@H](CCCNC(=N)N)C(=O)N3CCC(c4ccccc4)CC3C(=O)O)cc2c1` (stereo partly drawn) [compound 24], the IC50 was determined as 400 nM.

As for `COc1ccc2ccc(S(=O)(=O)N[C@@H](CCCNC(=N)N)C(=O)N3CCC(Cc4ccccc4)CC3)cc2c1` [compound 25], the IC50 came out at 600 nM.

For `COc1ccc2ccc(S(=O)(=O)N[C@@H](CCCNC(=N)N)C(=O)N3CCN(c4ccc(F)cc4)CC3)cc2c1` [compound 26], the IC50 came to 860 nM.

As to `COc1ccc2ccc(S(=O)(=O)N[C@@H](CCCNC(=N)N)C(=O)N3CCC(C(C)=O)(c4ccccc4)CC3)cc2c1` [compound 27], the IC50 came out at 35000 nM.

Turning to `COc1ccc(N2CCN(C(=O)[C@H](CCCNC(=N)N)NS(=O)(=O)c3ccc4ccc(OC)cc4c3)CC2)cc1` [compound 28], the IC50 is 2800 nM.

With `COc1ccc(S(=O)(=O)N[C@@H](CCCNC(=N)N)C(=O)N2CCC(c3ccccc3)CC2)c2ccccc12` [compound 29], the IC50 was 2200 nM.

As for `COc1ccc2ccc(S(=O)(=O)N[C@@H](CCCNC(=N)N)C(=O)N3CCC(C#N)(c4ccccc4)CC3)cc2c1` [compound 30], the IC50 is 1300 nM.

As to `COc1ccc2cc(S(=O)(=O)N[C@@H](CCCNC(=N)N)C(=O)N3CCC(c4ccccc4)CC3)ccc2c1` [compound 31], the IC50 came to 41200 nM.

Turning to `Cc1cc2ccc(S(=O)(=O)N[C@@H](CCCNC(=N)N)C(=O)N3CCC(c4ccccc4)CC3)cc2cc1C` [compound 32], the IC50 came to 9000 nM.

For the compound `COc1ccc2ccc(S(=O)(=O)N[C@@H](CCCNC(=N)N)C(=O)N3CCC(C(=O)Nc4ccccc4)CC3)cc2c1` [compound 33], the IC50 came to 3400 nM.

`N=C(N)NCCC[C@H](NS(=O)(=O)c1cccc2c1CCCC2)C(=O)N1CCC(c2ccccc2)CC1` [compound 34]: the IC50 worked out at 7700 nM.

As for `N=C(N)NCCC[C@H](NS(=O)(=O)c1ccc2c(c1)CCCC2)C(=O)N1CCC(c2ccccc2)CC1` [compound 35], the IC50 amounted to 6700 nM.

Consider `COc1cccc2cccc(S(=O)(=O)N[C@@H](CCCNC(=N)N)C(=O)N3CCC(c4ccccc4)CC3)c12` [compound 36], for which the IC50 was found to be 87000 nM.

On to `N=C(N)NCCC[C@H](NS(=O)(=O)c1cccc2ccccc12)C(=O)N1CCC(c2ccccc2)CC1` [compound 37], for which the IC50 stood at 11000 nM.

On to `N=C(N)NCCC[C@H](NS(=O)(=O)c1ccc2ccccc2c1)C(=O)N1CCC(c2ccccc2)CC1` [compound 38], for which the IC50 came out at 3200 nM.

Take `COc1ccc2ccc(S(=O)(=O)N[C@@H](CCCNC(=N)N)C(=O)N3CCC(c4ccccc4OC)CC3)cc2c1` [compound 39]: the IC50 stood at 280 nM.

As for `COc1ccc2ccc(S(=O)(=O)N[C@@H](CCCNC(=N)N)C(=O)N3CCC(c4ccccc4C)CC3)cc2c1` [compound 40], the IC50 was 400 nM.

With `COc1ccc2ccc(S(=O)(=O)N[C@@H](CCCNC(=N)N)C(=O)N3CCC(c4ccc(Cl)cc4)CC3)cc2c1` [compound 41], the IC50 is 460 nM.

As to `N=C(N)NCCC[C@H](NS(=O)(=O)c1ccc2ccc(O)cc2c1)C(=O)N1CCC(c2ccccc2)CC1` [compound 42], the IC50 worked out at 37000 nM.

Turning to `COc1ccc2ccc(S(=O)(=O)N[C@@H](CCCNC(=N)N)C(=O)N3CCC(Oc4ccccc4)CC3)cc2c1` [compound 43], the IC50 came to 25000 nM.

On to `N=C(N)NCCC[C@H](NC(=O)c1ccc2ccccc2c1)C(=O)N1CCC(c2ccccc2)CC1` [compound 44], for which the IC50 turned out to be 110000 nM.

For the compound `COc1ccc2ccc(S(=O)(=O)N[C@@H](CCCNC(=N)N)C(=O)N3CCN(c4cc(Cl)cc(Cl)c4)CC3)cc2c1` [compound 45], the IC50 amounted to 1000 nM.

Turning to `COc1ccc2ccc(S(=O)(=O)N[C@@H](CCCNC(=N)N)C(=O)N3CCN(c4cccc(C(F)(F)F)c4)CC3)cc2c1` [compound 46], the IC50 came out at 1600 nM.

On to `N=C(N)NCCC[C@H](NS(=O)(=O)c1cccc2c(Cl)cccc12)C(=O)N1CCC(c2ccccc2)CC1` [compound 47], for which the IC50 is 2500 nM.

As for `N=C(N)NCCC[C@H](NS(=O)(=O)c1ccc2ccc(Cl)cc2c1)C(=O)N1CCC(c2ccccc2)CC1` [compound 48], the IC50 was 1100 nM.

Take `COc1cc2c(S(=O)(=O)N[C@@H](CCCNC(=N)N)C(=O)N3CCC(c4ccccc4)CC3)cccc2cc1C(=O)O` [compound 50]: the IC50 is 450000 nM.

With `COc1ccc2ccc(S(=O)(=O)N[C@@H](CCCNC(=N)N)C(=O)N3CCC(c4cccc(C)c4)CC3)cc2c1` [compound 51], the IC50 was determined as 300 nM.

For `COc1ccc(C2CCN(C(=O)[C@H](CCCNC(=N)N)NS(=O)(=O)c3ccc4ccc(OC)cc4c3)CC2)cc1` [compound 52], the IC50 was determined as 200 nM.

As for `COc1ccc2ccc(S(=O)(=O)N[C@@H](CCCNC(=N)N)C(=O)N3CCC(c4ccc(C)cc4)CC3)cc2c1` [compound 53], the IC50 stood at 370 nM.
